Data reported in patent publication US4029650A, “Novel derivatives of N-(3,4,5-trimethoxy cinnamoyl)piperazine and the process for preparing them” (priority 1974, dated 1977).
Where a name gives a salt, the structure may show the parent alone. Read-outs that look alike come from different tables or passages of the source.

Key:
[1] = Coronary vasodilatory action: increase of flow in the anterior interventricular artery, anaesthetised dog, intravenous; type: in vivo
[2] = Antihypertensive properties in genetically hypertensive (vigil SHR) rat; type: in vivo; details: for Hypertensive action (vigil SHR rat), effect: 100 mg/kg p.o.
Acute toxicity (mouse) = details: in vivo; for LD50: read-out: Acute toxicity (DL 50) (converted); for mortality: read-out: Percentage mortality
[3] = Peripheral vasodilatory action: increase of femoral artery flow, anaesthetised dog, intra-arterial; type: in vivo; details: 500 μg/kg (0.5 mg/kg) i.a.
[4] = Increase of flow and oxygenation of the coronary veinous sinus, intravenous perfusion; type: in vivo, dog
Procedure: Furthermore, administered by intravenous perfusion, the derivatives of formula I are capable of increasing the flow and oxygenation of the coronary veinous sinus, the flow of the coronary veinous sinus being measured volumetrically by means of a modified MORAWITZ probe, whilst the oxygen content of the coronary veinous blood is calculated from the rate of hemoglobin saturation measured by hemoreflectometry.

[5] = Cerebral vasodilatory properties: sub-cortical irrigation, anaesthetised cat; type: in vivo; details: 8 mg/kg i.v.
Excerpt: Administered to an anaesthetised cat by single intravenous injection, the derivatives of formula I are capable of increasing the sub-cortical irrigation measured according to a technique derived from the thermoconductimetric method of SEYLAZ.

[6] = 12.5 mg/kg i.v. perfused in 10 min. (1 ml/min)
[7] = anaesthetised dog, 4 mg/kg i.v.
[8] = anaesthetised dog, 2 mg/kg i.v.
[9] = 12.7 mg/kg intravenous perfusion
[10] = 100 mg/kg po, genetically hypertensive rat
[11] = 17.5 mg/kg intravenous perfusion

COc1cc(C=CC(=O)N2CCN(CC(=O)N3CCCC3)CC2)cc(OC)c1OC [67 350, reference compound]
duration of increase of flow in the anterior interventricular artery [1, 6]: 60 min
increase of flow in the anterior interventricular artery [1, 6]: 59%
Hypertensive action (vigil SHR rat), effect ([2]; 4 h): -40%
Hypertensive action (vigil SHR rat), effect ([2]; 24 h): -20%
LD50 (Acute toxicity (mouse); iv, mouse, i.v.): 617 mg/kg
LD50 (Acute toxicity (mouse); po, mouse, p.o.): 1000 mg/kg
mortality (Acute toxicity (mouse); mouse, iv, 617 mg/kg, intravenously (mouse), 617 mg/kg): 50%
mortality (Acute toxicity (mouse); mouse, po, 1000 mg/kg, orally (mouse), 1 000 mg/kg): 50%
duration of increase of femoral artery flow [3]: 12 min
increase of femoral artery flow [3]: 82%

COc1ccc(CCN(C)C(=O)CN2CCN(C(=O)C=Cc3cc(OC)c(OC)c(OC)c3)CC2)cc1OC [75 0002, N-(3,4,5-trimethoxycinnamoyl)-N'-[N"-methyl N"-(3,4-dimethoxyphenylethyl)aminocarbonylmethyl] piperazine]
duration of increase of flow in the anterior interventricular artery [1, 7]: 19 min
increase of flow in the anterior interventricular artery [1, 7]: 100%
mortality (Acute toxicity (mouse); iv, intravenously (mouse), 200 mg/kg): ~50%
LD50 (Acute toxicity (mouse); iv, mouse, i.v.): 200 mg/kg
LD50 (Acute toxicity (mouse); po, mouse, p.o.): 2000 mg/kg
mortality (Acute toxicity (mouse); mouse, po, 2000 mg/kg, orally (mouse), 2 000 mg/kg): 30%
duration of increase of femoral artery flow [3]: 8 min
increase of femoral artery flow [3]: 105%
Increase of flow of the coronary veinous sinus ([4]; 20 mg/kg intravenous perfusion): 124%
Increase of oxygenation of the coronary veinous sinus ([4]; 20 mg/kg intravenous perfusion): 214%
duration of effect on flow of the coronary veinous sinus ([4]; 20 mg/kg intravenous perfusion): 15 min
duration of effect on oxygenation of the coronary veinous sinus ([4]; 20 mg/kg intravenous perfusion): 60 min

COc1cc(C=CC(=O)N2CCN(CC(=O)N3CCCCCCC3)CC2)cc(OC)c1OC [74 0678, N-(3,4,5-trimethoxycinnamoyl)-N'-(heptamethyleniminocarbonylmethyl) piperazine oxalate]
duration of increase in the sub-cortical flow [5]: 5 min
increase in the sub-cortical flow [5]: 45%
duration of increase of flow in the anterior interventricular artery [1, 8]: 8.3 min
increase of flow in the anterior interventricular artery [1, 8]: 148%
mortality (Acute toxicity (mouse); iv, intravenously (mouse), 255 mg/kg): ~50%
LD50 (Acute toxicity (mouse); iv, mouse, i.v.): 255 mg/kg
duration of increase of femoral artery flow [3]: 4.5 min
increase of femoral artery flow [3]: 226%
Increase of flow of the coronary veinous sinus [4, 9]: 65%
Increase of oxygenation of the coronary veinous sinus [4, 9]: 162%
duration of effect on flow of the coronary veinous sinus [4, 9]: 30 min
duration of effect on oxygenation of the coronary veinous sinus [4, 9]: 60 min

COc1cc(C=CC(=O)N2CCN(CC(=O)N3CCCCC3)CC2)cc(OC)c1OC.O=C(O)/C=C\C(=O)O [74 0479, N-(3,4,5-trimethoxycinnamoyl)-N'-(piperidinocarbonylmethyl) piperazine maleate]
duration of increase in the sub-cortical flow [5]: 47 min
increase in the sub-cortical flow [5]: 58%
duration of increase of flow in the anterior interventricular artery [1, 7]: 40 min
increase of flow in the anterior interventricular artery [1, 7]: 190%
animals with systolic arterial pressure lowered by 30 mmHg [2, 10]: 60%
duration of lowering of the systolic arterial pressure [2, 10]: exceeding 24 hours
lowering of the systolic arterial pressure ([2]; 100 mg/kg po, genetically hypertensive rat, in 60% of the animals): 30 mmHg
LD50 (Acute toxicity (mouse); iv, mouse, i.v.): 700 mg/kg
LD50 (Acute toxicity (mouse); po, mouse, p.o.): 2250 mg/kg
mortality (Acute toxicity (mouse); mouse, iv, 700 mg/kg, intravenously (mouse), 700 mg/kg): ~50%
mortality (Acute toxicity (mouse); mouse, po, 250 mg/kg, orally (mouse), 2 250 mg/kg): 50%
duration of increase of femoral artery flow [3]: 3 min
increase of femoral artery flow [3]: 120%
Increase of flow of the coronary veinous sinus [4, 11]: 50%
Increase of oxygenation of the coronary veinous sinus [4, 11]: 132%
duration of effect on flow of the coronary veinous sinus [4, 11]: 15 min
duration of effect on oxygenation of the coronary veinous sinus [4, 11]: 30 min

COc1cc(C=CC(=O)N2CCN(CC(=O)N3CCc4ccccc4C3)CC2)cc(OC)c1OC [75 0001, N-(3,4,5-trimethoxycinnamoyl)-N'-(1,2,3,4-tetrahydroisoquinolinocarbonylmethyl)piperazine]
duration of increase in the sub-cortical flow [5]: 22 min
increase in the sub-cortical flow [5]: 105%
duration of increase of flow in the anterior interventricular artery [1, 7]: 19 min
increase of flow in the anterior interventricular artery [1, 7]: 45%
mortality (Acute toxicity (mouse); iv, intravenously (mouse), 580 mg/kg): ~50%
LD50 (Acute toxicity (mouse); iv, mouse, i.v.): 580 mg/kg
duration of increase of femoral artery flow [3]: 7 min
increase of femoral artery flow [3]: 106%
Increase of flow of the coronary veinous sinus ([4]; 29 mg/kg intravenous perfusion): 88%
Increase of oxygenation of the coronary veinous sinus ([4]; 29 mg/kg intravenous perfusion): 142%
duration of effect on flow of the coronary veinous sinus ([4]; 29 mg/kg intravenous perfusion): 15 min
duration of effect on oxygenation of the coronary veinous sinus ([4]; 29 mg/kg intravenous perfusion): 60 min
